Values belong to the molecule of their own block, whether it stands above or below them.
Assays:
[1] = Intracellular half-life of EFdA triphosphate in human; format: in vivo; conditions: cells (intracellular; cell type not given), read-out: intracellular half-life of EFdA triphosphate (EFdA-TP) (converted)
[2] = Stability in Human Plasma (conversion to EFdA); format: in vitro ADME
Source text: (§1) The adenosine derivative having the Formula 1-A was produced according to the process described in PCT publication WO2021021717, published on Feb. 4, 2021, herein incorporated by reference. [table]

[3] = Stability in Human Liver S9 (conversion to EFdA); format: in vitro ADME
Source text: as §1

[4] = Phase I study: pharmacokinetics of ISL-TP in PBMCs; format: in vivo, human; conditions: for ISL-TP in PBMCs AUClast / ISL-TP in PBMCs Cmax: 3 weekly oral doses of 25 mg 1-A, healthy adults, mean
Source text: (§2) This example describes results from a Phase I, randomized, double-blind, placebo-controlled study for adenosine derivative having Formula 1-A (“1-A”), which is a prodrug of islatravir (ISL). Following oral absorption, 1-A is rapidly converted to ISL, which is metabolized intracellularly to the active metabolite, ISL triphosphate (ISL-TP). The objectives of the study were to assess the safety, tolerability, and PK profiles of 1-A and ISL in plasma; and ISL diphosphate (ISL-DP) and ISL-TP in human PBMCs.
(§3) Methods. Healthy adult subjects were enrolled in five single ascending dose and two multiple ascending dose cohorts. 1-A was administered to single dose cohorts in amounts of 10 mg, 25 mg, 50 mg, 100 mg or 200 mg. 1-A was administered to multiple dose cohorts in amounts of 10 mg per week for 3 weeks or 25 mg per week for 3 weeks. 1-A was orally administered in the fasted state using an oral solution formulation. Safety-related assessments included physical examinations, ECGs, vital signs, AEs, and standard clinical laboratory tests.

[5] = Phase I study: safety and tolerability (treatment-emergent adverse events); format: in vivo, human
Protocol: Following oral absorption, 1-A is rapidly converted to ISL, which is metabolized intracellularly to the active metabolite, ISL triphosphate (ISL-TP). The objectives of the study were to assess the safety, tolerability, and PK profiles of 1-A and ISL in plasma; and ISL diphosphate (ISL-DP) and ISL-TP in human PBMCs.
as §3

[6] = Phase I study: pharmacokinetics of 1-A and islatravir in plasma; format: in vivo, human
Source text: as §2, §3

[7] = single or multiple oral doses of 1-A, 10 mg to 200 mg

half-life [1]: ~108 h
SMILES: C#C[C@]1(COP(=O)(O)OP(=O)(O)OP(=O)(O)O)O[C@@H](n2cnc3c(N)nc(F)nc32)C[C@@H]1O [EFdA-TP, 4′-ethynyl-2-fluoro-2′-deoxyadenosine triphosphate]

SMILES: C#C[C@]1(COC(=O)OCc2oc(=O)oc2C)O[C@@H](n2cnc3c(N)nc(F)nc32)C[C@@H]1O [Formula 1-A, ((2R,3S,5R)-5-(6-amino-2-fluoro-9H-purin-9-yl)-2-ethynyl-3-hydroxytetrahydro-furan-2-yl)methyl ((5-methyl-2-oxo-1,3-dioxol-4-yl)methyl) carbonate]
half-life ([2]; human plasma): < 0.833 h | conversion to the target drug ([2]; human plasma assay): converted to the target drug efficiently | Stability in Human Plasma Formation of EFdA at 60 min ([2]; human plasma, 60 min): Yes | half-life ([3]; human liver S9): < 0.833 h | Stability in Human Liver S9 Formation of EFdA at 60 min ([3]; human liver S9, 60 min): Yes | conversion to the target drug ([3]; human liver S9 assay): converted to the target drug efficiently | ISL-TP in PBMCs AUClast ([4]; Day 1): 617 h*pmol/10^6 cells | ISL-TP in PBMCs Cmax ([4]; Day 1): 5.70 pmol/10^6 cells | ISL-TP in PBMCs AUClast ([4]; Day 15): 2210 h*pmol/10^6 cells | ISL-TP in PBMCs Cmax ([4]; Day 15): 15.4 pmol/10^6 cells | ISL-TP accumulation in PBMCs ([4]; after 3 weekly doses of 25 mg 1-A): significant ISL-TP accumulations | intracellular formation of ISL-TP in PBMCs ([4]; oral 1-A, dose-dependent manner): Efficient intracellular formation | Number (%) of Subjects with Any Death ([5]; 10 mg QW × 3 oral (N = 3)): 0 | Number (%) of Subjects with Any TEAE ([5]; 10 mg QW × 3 oral (N = 3)): 2 (66.7%) | Number (%) of Subjects with Any TEAE Grade 1 ([5]; 10 mg QW × 3 oral (N = 3)): 2 (66.7%) | Number (%) of Subjects with Any TEAE Grade 2, 3, 4, or 5 ([5]; 10 mg QW × 3 oral (N = 3)): 0 | Number (%) of Subjects with Any TEAE Leading to Premature Discontinuation of Study Drug ([5]; 10 mg QW × 3 oral (N = 3)): 0 | Number (%) of Subjects with Any TEAE Related to Study Drug ([5]; 10 mg QW × 3 oral (N = 3)): 2 (66.7%) | Number (%) of Subjects with Any TEAE Related to Study Drug Grade 1 ([5]; 10 mg QW × 3 oral (N = 3)): 2 (66.7%) | Number (%) of Subjects with Any TEAE Related to Study Drug Grade 2, 3, 4, or 5 ([5]; 10 mg QW × 3 oral (N = 3)): 0 | Number (%) of Subjects with Any Treatment-emergent Serious AE ([5]; 10 mg QW × 3 oral (N = 3)): 0 | Number (%) of Subjects with Any Death ([5]; 25 mg QW × 3 oral (N = 6)): 0 | Number (%) of Subjects with Any TEAE ([5]; 25 mg QW × 3 oral (N = 6)): 2 (33.3%) | Number (%) of Subjects with Any TEAE Grade 1 ([5]; 25 mg QW × 3 oral (N = 6)): 2 (33.3%) | Number (%) of Subjects with Any TEAE Grade 2, 3, 4, or 5 ([5]; 25 mg QW × 3 oral (N = 6)): 0 | Number (%) of Subjects with Any TEAE Leading to Premature Discontinuation of Study Drug ([5]; 25 mg QW × 3 oral (N = 6)): 0 | Number (%) of Subjects with Any TEAE Related to Study Drug ([5]; 25 mg QW × 3 oral (N = 6)): 2 (33.3%) | Number (%) of Subjects with Any TEAE Related to Study Drug Grade 1 ([5]; 25 mg QW × 3 oral (N = 6)): 2 (33.3%) | Number (%) of Subjects with Any TEAE Related to Study Drug Grade 2, 3, 4, or 5 ([5]; 25 mg QW × 3 oral (N = 6)): 0 | Number (%) of Subjects with Any Treatment-emergent Serious AE ([5]; 25 mg QW × 3 oral (N = 6)): 0 | tolerability ([5]; single doses up to 200 mg and repeat doses up to 25 mg, healthy adults): generally well tolerated | PK profiles of ISL in plasma and ISL-TP in PBMC cells ([6]; after single and multiple oral administrations of 1-A): linear pharmacokinetics | systemic exposure to 1-A (plasma, LLOQ) ([6]; single or multiple oral administrations of 1-A up to 200 mg, healthy adults): < 1.0 ng/mL | EFdA accumulation in plasma [6, 7]: No meaningful EFdA accumulation | ISL plasma PK profiles [6, 7]: Dose-dependent

From patent publication US20260248834A1, “PHARMACEUTICAL COMPOSITION AND METHOD FOR TREATMENT OF HUMAN IMMUNODEFICIENCY VIRUS INFECTIONS” (Brii Biosciences, Inc., priority 2022, published 2026)
